This is an account of results in article PMC4841536, “Characterization of the Anti-HCV Activities of the New Cyclophilin Inhibitor STG-175” (PLoS ONE, 2016).

Values joined by “and” are separate entries in the source; they are usually repeats but may differ in a detail not shown here. Equal entries are not always repeated. Where two headings read alike, the source gives them in different places.

Holding throughout (format): cell-based, hepatitis C virus
In test [1] the test system is D320E NS5A Con1 GT1b replicon. Put plainly: microbe, parasite or virus in culture. The conditions noted are these: for EC50: Hepatitis C virus, GT1B. The source says:
(§1) The GT1b subgenomic firefly luciferase reporter replicon pFK-I389/NS3–3 was provided by R. Bartenschlager. The GT1B subgenomic NS3, NS5A and NS5B mutants were created via homologous recombination using the In-Fusion HD Cloning kit (Clontech) as we described previously. […] The in vitro transcription of wild-type and mutant Con1 RNA was accomplished using the T7 MEGAscript kit (Ambion) by following the manufacturer’s instructions. In vitro-transcribed RNAs were introduced into Huh7.5.1 cells by electroporation. Trypsinized cells were washed twice and resuspended in phosphate-buffered saline (PBS) (calcium-free and magnesium-free) at 1x 10^7 cells per ml. Ten micrograms of RNA for each mutant was mixed with 0.4 mL of cells in a 4-mm cuvette, and a Bio-Rad Gene Pulser system was used to deliver a single pulse at 0.27 kV, 100 ohms, and 960 μF. Cells were then plated in 12-well dishes. RNA transfection efficiency and HCV subgenomic replication were assessed by reverse transcription-quantitative PCR (RT-qPCR) and presented as genome equivalents (GE) per microgram of total RNA as described previously. We measured by RT-qPCR the replication of wild-type, STG-175-, NS5Ai-, NS3i- and NS5Bi-resistant mutants in the presence of increasing concentrations of SGT-175, daclatasvir, telaprevir, boceprevir and sofosbuvir over a period of 8 days.
(§2) D320E and D320E/Y321N NS5A substitutions were introduced into wild-type Con1 GT1 replicon as we described previously. Con1-NS5A-D320E, and Con1-NS5A-D320E/Y321N were generated using the following forward and reverse phosphorylated (p) primer sets, respectively: (p)[…] and (p)[…], and (p)[…] and (p)[…]. PCR products were circularized with Quick T4 DNA ligase (NEB) for 5 min and transformed into NEB 10-beta competent cells. The NS5A gene was sequenced to confirm the introduced substitutions.
(§3) Fig 3 Replicon clearance, replication rebound and resistance analyses. […] Then drugs were removed to allow viral replication rebound to occur. At each passage, samples of cells were collected, RNA extracted and analyzed by RT-PCR for HCV RNA levels. B. Emergence of resistance: Con1 replicon Huh-7 cells were passaged 22 times in the absence or presence of STG-175 or selected DAAs. At each passage, sample of cells were collected, RNA extracted and analyzed by RT-PCR for HCV RNA levels. C. […] Data are expressed as number of HCV RNA copies per cell. […] Data are expressed as mean of relative light units and calculated EC50s are presented. […] E. Degree of resistance of D320E and Y321N Con1 variants: Left panel. Wild-type (WT), D320E and D320/Y321N NS5A Con1 RNA were electroporated into Huh7.5.1 cells and replication monitored over 8 days by quantifying the levels of intracellular HCV RNA. Right panel. Same as just above except that increasing concentrations of STG-175 were added at the time of the electroporation. […] STG-175 is taken as the substance from the printed x-axis title 'STG-175 in Log nM'.
(§4) To determine whether the D320E and Y321N substitutions truly render HCV resistant to STG-175, they were introduced into wild-type Con1 replicon as we described previously. Introduction of the substitutions was verified by sequencing.

In test [2] the test system is D320E/Y321N NS5A Con1 GT1b replicon. Put plainly: microbe, parasite or virus in culture. To be noted: for EC50: Hepatitis C virus, GT1B.
Excerpt: as §1, §2, §3, §4

The test system of test [3] is HCV in mixed PBMCs, NTCP-Huh7 and Huh7.5.1 cells. Put plainly: Dual/triple co-infection in cell co-cultures, HCV readout.

In the case of `CC=CCC(C)C(O)C1C(=O)NC(CC)C(=O)N(C)C(CSCCCCO)C(=O)N(C)C(CC(C)(C)O)C(=O)NC(C(C)C)C(=O)N(C)C(CC(C)C)C(=O)NC(C)C(=O)NC(C)C(=O)N(C)C(CC(C)C)C(=O)N(C)C(CC(C)C)C(=O)N(C)C(C(C)C)C(=O)N1C` (stereo not shown) [STG-175], the EC50 was 61.6 nM in test [1] (Huh-7.5.1, 144 h, read-out: EC50, D320E replicon); 83.2 nM in test [1] (Huh-7.5.1, 192 h, read-out: EC50, D320E replicon); 62.8 nM in test [1] (Huh-7.5.1, 192 h, read-out: EC50 D320E NS5A); 75 nM in test [2] (Huh-7.5.1, 144 h, read-out: EC50, D320E/Y321N replicon); 102 nM in test [2] (Huh-7.5.1, 192 h, read-out: EC50, D320E/Y321N replicon); 77.9 nM in test [2] (Huh-7.5.1, 192 h, read-out: EC50 D320E/Y321N NS5A). Moreover, the “fold more resistant than wild-type replicon, D320E” value in test [1] (day 6) is given as 1.7 fold; in test [1] (day 8) it was 2.4 fold. Also, the results for the “fold more resistant than wild-type replicon, D320E/Y321N” value in test [2] (day 6) and in test [2] (day 8) were 2.1 fold and 2.9 fold, respectively. Further, the “fold resistance conferred by NS5A D320E and Y321N substitutions (summary)” value in test [2] (variants emerged under STG-175 pressure) was ~ 2 fold and 2-3 fold. For the same molecule, in test [3] (STG-175 added together with virus), the “HCV infection in co-infection” value is reported as “totally blocked”. In addition, in test [3] (added 3 days post-infection and then every 3 days), the “pre-established HCV infection in co-infection” value is given as “totally eradicated”.
